What all share (test): inhibition of tumour cell growth, NCI panel, 48 h
For assay [1], the system named is HCC-2998 colon.
Assay [2] has as its system HOP-62 NSCLC.
The test system of assay [3] is MOLT-4 leukemia.
For assay [4], the system named is OVCAR-3 ovarian.
For assay [5], the system named is OVCAR-5 ovarian.
For assay [6], the system named is RPMI-8226 leukemia.
The test system of assay [7] is SF-295 CNS.
Assay [8] relates to CCRF-CEM leukemia.
The test system of assay [9] is SR leukemia.
Assay [10] concerns MCF7 breast.

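Five concentrations, 48 hours, 96-well plates. GI50 = concentration required for 50% inhibition of growth. TGI: total growth inhibition.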

`O=C1C2Nc3ccccc3SC2C(=O)N1c1ccc(Br)cc1` (stereo not given): the TGI was over 100 µM in [1]; 55.1 µM in [2]; over 100 µM in [3]; 99.5 µM in assay [4]; over 100 µM in [5]; over 100 µM in assay [6]. Also, in [7], the TGI is over 100 µM.
As to `COc1ccc(C/C(=N/O)C(=O)NCCc2cc(Br)c(OCCCN(C)C)c(Br)c2)cc1Br`, the TGI was found to be 28.5 µM in assay [1]; 30 µM in [2]; 40.4 µM in assay [4]; 49.2 µM in assay [5]; 34.7 µM in assay [7].
For `CCC(C)CCOC(=O)c1ccc(N=Cc2ccc(C=Nc3ccc(C(=O)OCCC(C)CC)cc3)cc2)cc1` (stereo not given), the TGI in [8], in assay [1], in assay [2], in assay [3], in assay [4] and in assay [5] was over 100 µM throughout. Further, the TGI in assay [6], in [7] and in assay [9] was over 100 µM in each case.
In the case of `CCOC(=O)/C(=C/N1CCN(C(=O)c2ccco2)C1=S)C(=O)c1ccccc1`, the GI50 in [8] is 15.6 µM; in assay [2], 17.3 µM; in [3] it was 19.6 µM; in assay [4], 20.2 µM; in assay [6], 12.4 µM; in assay [7] it was 16.4 µM. Further, the GI50 in assay [9] is 2.35 µM. Further, the TGI in assay [8], in [2], in assay [3], in [4], in assay [6] and in assay [7] was over 50 µM each time. Further, the TGI in [9] came out at 16.4 µM.
Turning to `COC(=O)C1CCc2c1c(=O)n1c([nH]c3ccccc31)c2C#N` (stereo not given), the TGI in assay [8], in assay [1], in assay [2], in assay [4], in [5] and in assay [6] was over 100 µM throughout. This compound also had a TGI in assay [7] of over 100 µM.
Turning to `O=C(NCCCCCCCCCCCCNC(=O)c1cccc2ccccc12)c1cccc2ccccc12`, the TGI in assay [8] was over 100 µM; in assay [1], over 100 µM; in assay [2], 30.4 µM; in [3] it was over 100 µM; in [4], over 67.6 µM; in assay [5] it was over 100 µM. Also, the figures for the TGI in assay [6], in assay [7] and in [9] were over 100 µM, over 83 µM and over 100 µM, respectively.
Take `Nc1ncnc2c1ncn2[C@]1(CO)C=C(CO)C(O)C1O` (stereo not given in full): the TGI in [1], in [2], in assay [3], in [5], in assay [6] and in [7] was over 100 µM in each case. In assay [9], this compound returned a TGI of over 100 µM.
With `CCN1C/C(=C\c2cc(OC)c(OC)cc2OC)C(=O)/C(=C/c2cc(OC)c(OC)cc2OC)C1`, the GI50 in assay [8] is 2.96 µM; in [1], 1.74 µM; in assay [2] it was 3.45 µM; in assay [3], 4.1 µM; in assay [4], 2.29 µM; in assay [5] it was 3.2 µM. In addition, the GI50 is 2.35 µM in [6], 2.3 µM in assay [7] and 3.16 µM in [9]. For the same compound, the TGI in assay [8] was over 100 µM; in assay [1], 3.33 µM; in assay [2] it was 10.4 µM; in [3] it was 81.6 µM; in assay [4], 5.17 µM; in assay [5], over 100 µM. For the same compound, the TGI is 6.78 µM in [6], 4.89 µM in assay [7] and 8.99 µM in assay [9].
Regarding `Cc1ccc(S(=O)(=O)OCCn2cnc3nc(NC(=O)c4ccccc4)[nH]c(=O)c32)cc1`, the TGI in assay [8], in assay [2], in assay [4], in assay [5], in assay [6] and in [7] was over 100 µM each time. For the same compound, the TGI in assay [9] was over 100 µM.
Turning to `CC1=Nc2ccccc2S/C1=C(/C)NNS(=O)(=O)c1ccc(C)cc1`, the TGI in assay [8] is 86.7 µM; in [1] it was over 100 µM; in assay [2], over 100 µM; in assay [3], over 100 µM; in [4], over 100 µM; in assay [5], over 100 µM. Moreover, the TGI in [6], in [7] and in [9] was over 100 µM throughout.
With `c1cc(NNc2cccc(-c3nn[nH]n3)c2)cc(-c2nn[nH]n2)c1`, the TGI in assay [2], in [10], in assay [4], in [5], in assay [6] and in [7] was over 100 µM throughout.
As to `O=C(/C=C/c1cc(Cl)cc(Cl)c1O)c1cccc(O)c1`, the TGI in assay [8] was over 100 µM; in assay [1], over 100 µM; in assay [2], over 100 µM; in [3], 46.6 µM; in assay [4], over 100 µM; in assay [5] it was 28.3 µM. Also, the results for the TGI in assay [6], in assay [7] and in assay [9] were over 100 µM, 28.5 µM and 59.8 µM, respectively.
Regarding `Cc1cn(C2CC(O)C(COC(=O)c3ccccc3)O2)c(=O)[nH]c1=O` (stereo not given), the TGI in assay [8], in assay [1], in assay [2], in assay [3], in assay [4] and in assay [5] was over 100 µM in each case. Besides, the TGI in assay [6], in [7] and in [9] was over 100 µM each time.
For the compound `COC(=O)C(Cc1cc(OC)c(OC)c(OC)c1)C(=O)OC`, the TGI in assay [8], in assay [1], in [2], in [3], in assay [4] and in [5] was over 320 µM in each case. The TGI in [6], in assay [7] and in assay [9] was over 320 µM each time.

These data come from PubChem BioAssay (NCI).
